Data on five molecules can be found in patent US6017956A, “N,N-disubstituted amic acid derivatives” (Banyu Pharmaceutical Co., Ltd., priority 1994, dated 2000).

Assay [1] concerns farnesyl-modification of Ras protein in NIH3T3 cells transformed by activated ras gene. In words: Inhibitory activities against farnesyl-modification of Ras protein in NIH3T3 cells transformed by activated ras gene. Particulars: Mus musculus, 24 hours, proportion of non-farnesyl-modified Ras protein by densitometer, read-out: 50% inhibitory concentrations against farnesyl-modification of Ras protein, IC50. In kind it is cell-based. On the procedure:
PHARMACOLOGICAL TEST EXAMPLE 2
(Inhibitory Activities Against Farnesyl-Modification of Ras Protein)
Using the compounds of the present invention, inhibitory activities against farnesyl-modification of Ras protein in NIH3T3 cells transformed by activated ras gene, were measured.
The NIH3T3 cells transformed by activated ras gene, were seeded on a culture plate and cultured for 3 days. Then, a compound of the present invention in a predetermined concentration was added to the culture. In accordance with the method disclosed in J. Biol. Chem., vol. 268, p. 18415 (1993), the cells were cultured for 24 hours and then taken off from the plate, and the cells were dissolved. After centrifugal separation for 5 minutes under 12000 g, the supernatant was used as a cell extract. The cell extract was subjected to SDS polyacrylamide gel electrophoresis to separate farnesyl-modified Ras protein and non-farnesyl-modified Ras protein. The protein on the gel was transferred onto a nitrocellulose membrane, and an anti-Ras protein antibody was reacted as a probe (primary antibody reaction). An anti-primary antibody, a peroxidase inclusion (secondary antibody), was reacted, and then Ras protein was detected by a chemical fluorescence enhancing kit. The proportion of non-farnesyl-modified Ras protein was quantified by a densitometer and taken as the inhibitory activity.
The 50% inhibitory concentrations (IC50 values) of the compounds of the present invention against farnesyl-modification of Ras protein as shown in Table

Assay [2] addresses T1, protein-farnesyl transferase (PFT) (Rattus norvegicus, UniProt Q02293+Q04631).
T1 construct: PFT derived from rat brain; from tissue; host or cells: rat brain, soluble fraction (30-50% ammonium sulfate cut, Q-Sepharose fraction)
The experiment in a line: Inhibitory activities against protein-farnesyl transferase. Conditions: PFT derived from rat brain; prenyl acceptor H-ras protein or biotin-added Lys-Thr-Ser-Cys-Val-Ile-Met; 37° C., 20 minutes; read-out: 50% inhibitory concentrations against PFT activities, IC50. Format: biochemical. On the procedure: Inhibitory activities against protein-farnesyl transferase
PFT was separated in such a manner that a soluble fraction of rat's brain was fractionated by means of 30%-50% saturated ammonium sulfate, further dialyzed and then subjected to column chromatography by Q-cephalose™ (manufactured by Pharmacia) (Reiss et al, Cell, vol. 62, p. 81-88 (1990)).
(2) Method for measuring PFT activities
Measurement of PFT activities was conducted by using, as a prenyl acceptor, H-ras protein or a substance that biotin was added to N-terminal of a peptide corresponding to a 7 amino acid residue at C terminal of K-rasB protein (biotin-added Lys-Thr-Ser-Cys-Val-Ile-Met) and, as a prenyl doner, [^3 H]-labeled farnesylpyrophosphate (FPP) (Reiss et al, Methods: A Companion to a Methods in Enzymology, vol. 1, No. 3, p. 241-245 (1990)). […]
The enzymatic reaction product containing H-ras protein as the prenyl acceptor, was analyzed by SDS-PAGE (sodium dodecylsulfate/polyacrylamide gel electrophoresis). […]
The measurement of PFT activities using H-ras protein as the prenyl receptor, was also analyzed by a rapid separate method. […]

For the molecule `C=CCOC(=O)C(CC(=O)O)=C(O)C(=O)N(Cc1ccc2ccccc2c1)[C@H](C)[C@H](Cc1ccc(C(=O)Nc2ccccc2)o1)c1ccc2c(c1)OCO2` (racemic) [Example 29, 3-allyloxycarbonyl-4-hydroxy-4-[N-[(1RS,2RS)-1-methyl-2-(3,4-methylenedioxyphenyl)-3-{5-(phenylcarbamoyl)-2-furyl}propyl]-N-(2-naphthylmethyl)carbamoyl]-3-butenoic acid], the IC50 in assay [1] turned out to be 4.7 nM. As for `CC(C)OC(=O)C(CCC(=O)O)=C(O)C(=O)N(Cc1ccc2ccccc2c1)[C@H](C)[C@H](Cc1ccc(C(=O)Nc2ccccc2)o1)c1ccc([N+](=O)[O-])cc1` (racemic) [Example 30, 5-hydroxy-4-isopropoxycarbonyl-5-[N-[(1RS,2RS)-1-methyl-2-(4-nitrophenyl)-3-{5-(phenylcarbamoyl)-2-furyl}propyl]-N-(2-naphthylmethyl)carbamoyl]-4-pentenoic acid], the IC50 in assay [1] stood at 21 nM. `C[C@H]([C@H](Cc1cccc(C(=O)Nc2ccccc2)c1)c1ccc(Cl)cc1)N(Cc1ccc2ccccc2c1)C(=O)CC(CC(=O)O)C(=O)O` (stereo partly drawn) [Example 10, N-{(1RS,2RS)-2-(4-chlorophenyl)-1-methyl-3-(3-phenylcarbamoylphenyl)propyl}-N-(2-naphthylmethyl)carbamoylmethylsuccinic acid]: the IC50 in assay [2] was determined as 1.8 nM. Turning to `C[C@H]([C@H](Cc1ccc(C(=O)Nc2ccccc2)o1)c1ccc([N+](=O)[O-])cc1)N(Cc1ccc2ccccc2c1)C(=O)CC(CC(=O)O)C(=O)O` (stereo partly drawn) [Example 1, N-[(1-RS,2RS)-1-methyl-2-(4-nitrophenyl)-3-{5-(phenylcarbamoyl)-2-furyl}propyl]-N-(2-naphthylmethyl)carbamoylmethylsuccinic acid], the IC50 in assay [2] worked out at 0.6 nM. `C[C@H]([C@H](Cc1ccc(C(=O)Nc2ccccc2)o1)c1ccc([N+](=O)[O-])cc1)N(Cc1ccc2ccccc2c1)C(=O)C(O)=C(CC(=O)O)C(=O)OC(C)(C)C` (racemic) [Example 25, 3-tert-butoxycarbonyl-4-hydroxy-4-[N-[(1RS,2RS)-1-methyl-2-(4-nitrophenyl)-3-{5-(phenylcarbamoyl)-2-furyl}propyl]-N-(2-naphthylmethyl)carbamoyl]-3-butenoic acid]: the IC50 in assay [1] was 21 nM.
